Test results published in ChEMBL document CHEMBL1201862, “PubChem BioAssay data set” (2004).
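Briefly, cells in 96-well plates were exposed to five compound concentrations for 48 h, and endpoints were estimated by linear interpolation. GI50: concentration for 50% inhibition of growth.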 The source made the active and inactive calls. Cut-off read from the data, not from the text of the source: active = GI50 up to about 1.1 µM and inactive = higher.

Assays:
Assay in all cases: NCI anticancer screen, dose series, 48 h
786-0 = system: 786-0
A498 = system: A498
A549 = system: A549
ACHN = system: ACHN
CAKI-1 = system: CAKI-1
CCRF-CEM = system: CCRF-CEM
COLO 205 = system: COLO 205
DLD-1 = system: DLD-1
DMS-114 = system: DMS-114
DMS-273 = system: DMS-273
HCC 2998 = system: HCC 2998
HCT-116 = system: HCT-116
HCT-15 = system: HCT-15
HL-60 = system: HL-60
HOP-18 = system: HOP-18
HOP-62 = system: HOP-62
HT-29 = system: HT-29
IGROV-1 = system: IGROV-1
K562 = system: K562
KM-20L2 = system: KM-20L2
KM12 = system: KM12
LOX IMVI = system: LOX IMVI
LXFL 529 = system: LXFL 529
M14 = system: M14
M19-MEL = system: M19-MEL
MOLT-4 = system: MOLT-4
Malme-3M = system: Malme-3M
NCI-H226 = system: NCI-H226
NCI-H23 = system: NCI-H23
NCI-H460 = system: NCI-H460
NCI-H522 = system: NCI-H522
OVCAR-3 = system: OVCAR-3
OVCAR-4 = system: OVCAR-4
OVCAR-5 = system: OVCAR-5
OVCAR-8 = system: OVCAR-8
RPMI-8226 = system: RPMI-8226
RXF 393 = system: RXF 393
SF-268 = system: SF-268
SF-295 = system: SF-295
SF-539 = system: SF-539
SK-MEL-28 = system: SK-MEL-28
SK-MEL-2 = system: SK-MEL-2
SK-MEL-5 = system: SK-MEL-5
SK-OV-3 = system: SK-OV-3
SN12C = system: SN12C
SNB-19 = system: SNB-19
SNB-75 = system: SNB-75
SNB-78 = system: SNB-78
SW-620 = system: SW-620
TK-10 = system: TK-10
U-251 = system: U-251
UACC-257 = system: UACC-257
UACC-62 = system: UACC-62
UO-31 = system: UO-31
HOP-92 = system: HOP-92
SR = system: SR
EKVX = system: EKVX
BT-549 = system: BT-549
DU-145 = system: DU-145
Hs-578T = system: Hs-578T
MCF7 = system: MCF7
MDA-MB-231 = system: MDA-MB-231
MDA-MB-435 = system: MDA-MB-435
MDA-N = system: MDA-N
NCI/ADR-RES = system: NCI/ADR-RES
PC-3 = system: PC-3
T47D = system: T47D
XF498 = system: XF498

Measured: GI50

COC(OC)c1cccc2c1C(=O)CCC1(CC2)OCCCCO1
inactive: 786-0 > 100 µM | A498 > 100 µM | A549 > 100 µM | ACHN > 100 µM | CAKI-1 > 100 µM | CCRF-CEM > 100 µM | COLO 205 > 100 µM | DLD-1 > 100 µM | DMS-114 > 100 µM | DMS-273 > 100 µM | HCC 2998 > 100 µM | HCT-116 > 100 µM | HL-60 > 100 µM | HOP-18 > 100 µM | HOP-62 > 100 µM | HT-29 > 100 µM | IGROV-1 > 100 µM | K562 > 100 µM | KM-20L2 > 100 µM | KM12 > 100 µM | LOX IMVI > 100 µM | LXFL 529 > 100 µM | M14 > 100 µM | M19-MEL > 100 µM | MOLT-4 > 100 µM | Malme-3M > 100 µM | NCI-H226 > 100 µM | NCI-H23 > 100 µM | NCI-H460 > 100 µM | NCI-H522 > 100 µM | OVCAR-3 > 100 µM | OVCAR-4 > 100 µM | OVCAR-5 > 100 µM | OVCAR-8 > 100 µM | RPMI-8226 > 100 µM | RXF 393 > 100 µM | SF-268 > 100 µM | SF-295 > 100 µM | SF-539 > 100 µM | SK-MEL-28 > 100 µM | SK-MEL-2 > 100 µM | SK-MEL-5 > 100 µM | SK-OV-3 > 100 µM | SN12C > 100 µM | SNB-19 > 100 µM | SNB-75 > 100 µM | SNB-78 > 100 µM | SW-620 > 100 µM | TK-10 > 100 µM | U-251 > 100 µM | UACC-257 > 100 µM | UACC-62 > 100 µM | UO-31 > 100 µM
> 100 µM: HCT-15

CCCCCCCCOCC(O)COC (stereo not drawn)
> 100 µM: HCT-15
inactive: 786-0 > 100 µM | A498 > 100 µM | A549 > 100 µM | ACHN > 100 µM | CAKI-1 > 100 µM | CCRF-CEM > 100 µM | COLO 205 > 100 µM | DLD-1 > 100 µM | DMS-114 > 100 µM | DMS-273 > 100 µM | HCC 2998 > 100 µM | HCT-116 > 100 µM | HL-60 > 100 µM | HOP-18 > 100 µM | HOP-62 > 100 µM | HOP-92 82.6 µM | HT-29 > 100 µM | IGROV-1 > 100 µM | K562 63.8 µM | LOX IMVI > 100 µM | LXFL 529 > 100 µM | M14 > 100 µM | M19-MEL > 100 µM | MOLT-4 > 100 µM | Malme-3M > 100 µM | NCI-H226 > 100 µM | NCI-H23 > 100 µM | NCI-H460 > 100 µM | OVCAR-3 94.6 µM | OVCAR-4 > 100 µM | OVCAR-5 > 100 µM | OVCAR-8 > 100 µM | RPMI-8226 > 100 µM | SF-268 > 100 µM | SF-295 > 100 µM | SK-MEL-28 > 100 µM | SK-MEL-5 > 100 µM | SK-OV-3 > 100 µM | SN12C > 100 µM | SNB-19 > 100 µM | SR > 100 µM | SW-620 > 100 µM | TK-10 > 100 µM | U-251 > 100 µM | UACC-257 69.7 µM | UACC-62 > 100 µM | UO-31 > 100 µM

CCC1CNC(=O)CC1CC(=O)OC (stereo not drawn)
inactive: 786-0 > 100 µM | A549 > 100 µM | ACHN > 100 µM | CAKI-1 > 100 µM | DMS-114 > 100 µM | EKVX > 100 µM | HCC 2998 > 100 µM | HCT-116 > 100 µM | HL-60 > 100 µM | HOP-62 > 100 µM | HOP-92 > 100 µM | IGROV-1 > 100 µM | K562 > 100 µM | KM-20L2 > 100 µM | KM12 > 100 µM | LOX IMVI > 100 µM | M14 > 100 µM | MOLT-4 > 100 µM | Malme-3M > 100 µM | NCI-H226 > 100 µM | NCI-H23 > 100 µM | NCI-H522 > 100 µM | OVCAR-3 > 100 µM | OVCAR-4 > 100 µM | OVCAR-5 > 100 µM | RXF 393 > 100 µM | SF-268 > 100 µM | SK-MEL-28 > 100 µM | SK-MEL-2 > 100 µM | SK-MEL-5 > 100 µM | SK-OV-3 > 100 µM | SN12C > 100 µM | SNB-19 > 100 µM | SNB-75 > 100 µM | SNB-78 > 100 µM | SR > 100 µM | SW-620 > 100 µM | TK-10 > 100 µM | U-251 > 100 µM | UACC-62 > 100 µM | UO-31 > 100 µM
> 100 µM: HCT-15

O=C(CBr)NCCc1c[nH]c2ccccc12
1.76 µM: HCT-15
active: CAKI-1 0.776 µM | CCRF-CEM 0.174 µM | LOX IMVI 0.482 µM | MOLT-4 0.406 µM | NCI-H226 0.655 µM | NCI-H522 0.229 µM | RXF 393 1.09 µM | SR 0.344 µM
inactive: 786-0 1.4 µM | A498 19 µM | A549 2.14 µM | ACHN 1.73 µM | BT-549 1.77 µM | COLO 205 1.65 µM | DU-145 2.07 µM | EKVX 1.79 µM | HCC 2998 9.95 µM | HCT-116 1.65 µM | HL-60 1.7 µM | HOP-62 1.94 µM | HOP-92 2.29 µM | HT-29 1.83 µM | Hs-578T 5.14 µM | IGROV-1 1.83 µM | K562 1.44 µM | KM12 1.93 µM | M14 1.66 µM | MCF7 2 µM | MDA-MB-231 2.23 µM | MDA-MB-435 1.52 µM | MDA-N 2.02 µM | Malme-3M 2.94 µM | NCI-H23 1.46 µM | NCI-H460 6.44 µM | NCI/ADR-RES 2.11 µM | OVCAR-3 1.92 µM | OVCAR-4 1.79 µM | OVCAR-5 1.87 µM | OVCAR-8 3.33 µM | PC-3 1.99 µM | RPMI-8226 1.97 µM | SF-268 2.16 µM | SF-295 13.7 µM | SF-539 1.81 µM | SK-MEL-28 3.49 µM | SK-MEL-2 1.92 µM | SK-MEL-5 1.17 µM | SK-OV-3 2.67 µM | SN12C 1.45 µM | SNB-19 6.17 µM | SNB-75 1.65 µM | SW-620 2.03 µM | T47D 1.74 µM | TK-10 1.86 µM | U-251 1.87 µM | UACC-257 3.01 µM | UACC-62 1.75 µM | UO-31 1.72 µM

S=C=NCCc1ccccc1 [PHENETHYLISOTHIOCYANATE]
inactive: A549 2.39 µM | ACHN 1.56 µM | EKVX 16.8 µM | NCI-H226 1.49 µM | OVCAR-4 2.14 µM | OVCAR-5 1.55 µM | OVCAR-8 1.33 µM | SF-295 1.57 µM | SK-OV-3 1.72 µM | SNB-19 1.73 µM | SNB-75 2.65 µM | UO-31 1.59 µM | XF498 2.39 µM
active: 786-0 0.188 µM | A498 0.431 µM | CCRF-CEM 0.186 µM | COLO 205 0.762 µM | DLD-1 0.0596 µM | DMS-114 0.382 µM | DMS-273 0.255 µM | HCC 2998 0.412 µM | HCT-116 0.453 µM | HL-60 0.385 µM | HOP-62 0.371 µM | HT-29 0.219 µM | IGROV-1 0.435 µM | K562 0.226 µM | KM-20L2 0.729 µM | KM12 0.239 µM | LOX IMVI 0.194 µM | LXFL 529 0.212 µM | M14 0.46 µM | M19-MEL 0.753 µM | MOLT-4 0.53 µM | Malme-3M 0.964 µM | NCI-H23 0.453 µM | NCI-H460 0.0973 µM | NCI-H522 0.193 µM | OVCAR-3 0.612 µM | RPMI-8226 0.179 µM | RXF 393 0.443 µM | SF-268 1.06 µM | SF-539 0.207 µM | SK-MEL-28 0.71 µM | SK-MEL-2 0.402 µM | SK-MEL-5 0.325 µM | SN12C 0.319 µM | SNB-78 0.818 µM | SR 0.351 µM | SW-620 0.31 µM | TK-10 0.813 µM | U-251 0.794 µM | UACC-257 0.885 µM | UACC-62 0.839 µM
0.228 µM: HCT-15
